From ChEMBL document CHEMBL5149971, “Pyridones in drug discovery: Recent advances” (Bioorg Med Chem Lett, 2021)
Each block holds one compound with its values, some of them ahead of it.

Columns and labels:
[1] = Oral bioavailability in hamster; assay type: ADME, organism-based, Mesocricetus auratus; conditions: in vivo
rhinovirus B14 [2] = experiment: Antiviral activity against Human rhinovirus 14 infected in H1-HeLa cells assessed as reduction in viral infection measured after 2 days by XTT dye reduction method; assay type: functional, organism-based; conditions: Rhinovirus B, 48 h
Neutrophil elastase = biological target: T1, Neutrophil elastase (Homo sapiens, UniProt P08246); experiment: Inhibition of human neutrophil elastase using methoxysuccinyl-Ala-Ala-Pro-Val-pnitroanilide as substrate by spectrophotometric analysis
T1 sequence (P08246 whole entry): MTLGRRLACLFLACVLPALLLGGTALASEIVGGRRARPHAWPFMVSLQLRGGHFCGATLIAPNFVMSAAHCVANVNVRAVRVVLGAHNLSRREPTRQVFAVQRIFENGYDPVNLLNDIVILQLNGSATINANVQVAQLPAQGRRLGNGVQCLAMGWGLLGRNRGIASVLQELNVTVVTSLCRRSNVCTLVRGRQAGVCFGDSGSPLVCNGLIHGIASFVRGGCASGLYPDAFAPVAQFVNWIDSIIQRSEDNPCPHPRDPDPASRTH

[3] = Inhibition of MEK (unknown origin) in the presence of [gamma33P]ATP by scintillation counting method; set-up: species or system Homo sapiens
rhinovirus B14 [4] = experiment: Antiviral activity against Human rhinovirus 14 infected in H1-HeLa cells assessed as reduction in viral infection measured after 5 days by XTT dye reduction method; assay type: functional, organism-based; conditions: Rhinovirus B, 120 h

SMILES: CCOC(=O)/C=C/[C@H](CCC(N)=O)NC(=O)[C@H](Cc1ccccc1)NC(=O)[C@H](CC(C)C)NC(=O)OCc1ccccc1
EC50 (rhinovirus B14 [2]): 0.54 µM

SMILES: CC(C)C(NC(=O)[C@@H]1CCCN1C(=O)[C@@H](NC(=O)c1ccc(C(=O)NS(=O)(=O)c2ccc(Cl)cc2)cc1)C(C)C)C(N)=O (stereo not given in full)
Ki (Neutrophil elastase): 0.0005 µM

SMILES: CCOC(=O)/C=C/[C@H](C[C@@H]1CCNC1=O)NC(=O)[C@@H](CC(=O)[C@@H](NC(=O)c1cc(C)on1)C(C)C)Cc1ccc(F)cc1
EC50 (rhinovirus B14 [4]): 0.013 µM

Results, then the compound that gave them:

bioavailability [1]: 77%
SMILES: CC(C)C(NC(=O)Cn1c(-c2ccc(F)cc2)ncc(N)c1=O)C(=O)C(F)(F)F (stereo not given)

IC50 [3]: 0.16 µM
SMILES: CC(C)(C)c1nc2c3ccc(F)cc3c3c(=O)[nH]ccc3c2[nH]1
